Source: ChEMBL document CHEMBL1201862, “PubChem BioAssay data set” (2004)
Calls of active or inactive are those of the source.

Key:
[1] = target: T1, Heat shock 70 kDa protein 1A (Homo sapiens, UniProt P0DMV8); experiment: Hsp70 inhibitors, biochemical, TR-FRET (AID 786)
[2] = target: T1, Heat shock 70 kDa protein 1A; experiment: Hsp70 inhibitors, probe displacement, primary screen, biochemical, fluorescence polarization (AID 583)
[3] = target: Mothers against decapentaplegic homolog 3 (Homo sapiens, UniProt P84022); experiment: Smad3 binding inhibitors, lysate ELISA, dose response, cell lysate, secondary confirmation, chemiluminescent ELISA, HEK293 lysate (AID 1058); type: functional
[4] = target: Neuropeptide Y receptor type 1 (Homo sapiens, UniProt P25929); experiment: Fluorescence-based counterscreen for agonists of NPY-Y2: cell-based high-throughput dose response assay for agonists of NPY-Y1.; type: functional
[5] = target: Neuropeptide Y receptor type 2 (Homo sapiens, UniProt P49146); experiment: Fluorescence-based cell-based high-throughput dose response assay for agonists of NPY-Y2. [Related pubchem assays: 1703 (Screening assay (CNGC inhibitors).), 1359 (Screening assay (NPY-Y2 potentiators or agonists).), 1304 (Screening assay (NPY-Y1 potentiators or agonists).), 1710 (Screening assay (NPY-Y2 agonists).), 1791 (Summary AID.)]; type: functional
[6] = inhibitors of intracellular T. cruzi replication, confirmation, NIH3T3 host cells, beta-gal luminescence (AID 2044); type: functional, cell-based;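 also: intracellular parasites grown in NIH/3T3 mouse fibroblasts as host cells; luminescent beta-galactosidase reporter signal from transgenic T. cruzi replicating inside host cells; inhibitors lower the luminescence signal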
[7] = cytotoxicity toward NIH3T3 fibroblasts, dose response, counter-screen, cell-based, ATP luminescence, mouse fibroblasts (AID 2010); type: functional;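 also: cells exposed to compound for about 90 hours before reading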
HEK293 = experiment: Fluorescence-based counterscreen for potentiators or agonists of NPY-Y2: cell-based high-throughput dose response assay to identify inhibitors of cyclic nucleotide gated ion channel (CNGC) activity. In this assay, the parental HEK293 cell line transfected with a cyclic-nucleotide gated ion channel (CNGC)-based cAMP sensor is used to measure inhibition of isoproterenol-induced CNGC activity by test compound.; type: functional; conditions: Homo sapiens;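 also: stimulus is 1 µM isoproterenol at EC100 plus PDE inhibitor Ro 20-1724 at 25 µM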
[8] = target: T2, Heat shock factor protein 1 (Mus musculus, UniProt P38532); experiment: HSF1 potentiators in luciferase reporter cells, confirmation, cell-based, NIH3T3, luminescence, dose retest (AID 435004); type: functional;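 also: stress induced by proteasome inhibitor MG132 added 30 min after compound; luciferase reporter driven by HSF1 response element in NIH3T3 cells; actives raise luminescence as potentiators of the MG132 stress response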
T2 sequence (P38532 whole entry): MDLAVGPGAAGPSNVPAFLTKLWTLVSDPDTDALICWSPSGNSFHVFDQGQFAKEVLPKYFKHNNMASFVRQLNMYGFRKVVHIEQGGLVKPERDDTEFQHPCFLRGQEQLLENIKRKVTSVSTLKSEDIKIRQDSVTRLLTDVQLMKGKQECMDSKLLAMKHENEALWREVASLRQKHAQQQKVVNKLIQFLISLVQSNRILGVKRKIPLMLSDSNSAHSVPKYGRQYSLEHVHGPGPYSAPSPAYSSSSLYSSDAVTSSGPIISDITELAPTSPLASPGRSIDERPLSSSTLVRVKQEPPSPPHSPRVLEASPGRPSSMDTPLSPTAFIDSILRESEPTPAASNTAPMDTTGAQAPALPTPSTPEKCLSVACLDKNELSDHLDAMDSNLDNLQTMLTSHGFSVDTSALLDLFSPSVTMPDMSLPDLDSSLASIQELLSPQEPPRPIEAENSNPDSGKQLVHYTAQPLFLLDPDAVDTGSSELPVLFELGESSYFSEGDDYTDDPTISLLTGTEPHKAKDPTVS

[9] = target: Sphingosine 1-phosphate receptor 4 (Homo sapiens, UniProt O95977); experiment: Fluorescence dose response cell-based high throughput screening assay for antagonists of the Sphingosine 1-Phosphate Receptor 4 (S1P4). [Related pubchem assays: 1524 (Confirmation in triplicates.), 1510 (Primary screen.)]; type: functional
[10] = target: Sphingosine 1-phosphate receptor 1 (Homo sapiens, UniProt P21453); type: functional;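 also: Tango beta-arrestin reporter U2OS cells stimulated with S1P near its EC80; inhibitor potency meaning antagonism of receptor activation by the natural agonist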
Paired box protein Pax-8 = Paired box protein Pax-8 (Homo sapiens, UniProt Q06710); experiment: inhibitors of PAX8-driven TPO luciferase reporter, dose response, RMG-I cells, cherry-pick (AID 687027); type: functional, cell-based;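 also: luciferase reporter driven by Pax8 target thyroperoxidase promoter measured by SteadyGlo luminescence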
[11] = target: T3, Microphthalmia-associated transcription factor (Homo sapiens, UniProt O75030); experiment: TRPM1 promoter luciferase signal decrease, dose response, MITF inhibitor project, cell-based, SK-MEL-5, cherry-picked, set 3 (AID 493073); type: functional
T3 sequence (O75030 whole entry): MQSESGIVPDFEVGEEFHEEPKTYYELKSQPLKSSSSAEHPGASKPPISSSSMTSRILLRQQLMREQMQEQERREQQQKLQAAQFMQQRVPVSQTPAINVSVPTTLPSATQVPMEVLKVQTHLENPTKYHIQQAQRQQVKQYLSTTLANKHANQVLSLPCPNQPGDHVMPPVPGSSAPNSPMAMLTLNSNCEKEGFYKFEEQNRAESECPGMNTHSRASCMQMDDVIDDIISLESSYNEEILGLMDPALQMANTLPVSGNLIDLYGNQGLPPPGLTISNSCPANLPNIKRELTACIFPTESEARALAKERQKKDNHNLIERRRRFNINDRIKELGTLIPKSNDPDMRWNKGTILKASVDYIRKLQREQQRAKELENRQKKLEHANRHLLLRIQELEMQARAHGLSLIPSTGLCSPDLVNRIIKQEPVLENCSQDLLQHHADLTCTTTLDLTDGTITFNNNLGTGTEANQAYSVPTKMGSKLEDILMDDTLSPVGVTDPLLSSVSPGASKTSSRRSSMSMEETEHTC

HeLa = experiment: Cytotoxicity counterscreen assay for transcriptional activators of heat shock protein 70 (Hsp70). [Related pubchem assays: 1203, 1252 ]; type: functional; conditions: Homo sapiens;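 also: cells exposed to compound for 16 hours before readout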
Procathepsin L = Procathepsin L (Homo sapiens, UniProt P07711)
Aspartyl aminopeptidase = Aspartyl aminopeptidase (Plasmodium falciparum 3D7, UniProt Q8I2J3)
Aspartyl aminopeptidase, sequence (Q8I2J3 whole entry): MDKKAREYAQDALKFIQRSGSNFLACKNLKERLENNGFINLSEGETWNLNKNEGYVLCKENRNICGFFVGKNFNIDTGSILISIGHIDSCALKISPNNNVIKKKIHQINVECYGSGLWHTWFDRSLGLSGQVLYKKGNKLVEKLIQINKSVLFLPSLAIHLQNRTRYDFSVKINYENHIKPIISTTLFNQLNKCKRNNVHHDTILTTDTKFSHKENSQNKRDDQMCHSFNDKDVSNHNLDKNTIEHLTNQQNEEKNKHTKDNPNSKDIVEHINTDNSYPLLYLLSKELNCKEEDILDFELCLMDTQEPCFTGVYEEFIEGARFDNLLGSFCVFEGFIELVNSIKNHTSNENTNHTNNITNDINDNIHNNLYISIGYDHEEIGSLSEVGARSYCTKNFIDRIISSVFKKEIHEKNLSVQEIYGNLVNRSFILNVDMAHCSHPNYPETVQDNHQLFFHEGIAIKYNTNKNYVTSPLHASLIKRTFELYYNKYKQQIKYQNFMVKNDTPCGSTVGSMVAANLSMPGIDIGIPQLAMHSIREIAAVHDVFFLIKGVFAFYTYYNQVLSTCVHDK

T1 sequence (P0DMV8 whole entry): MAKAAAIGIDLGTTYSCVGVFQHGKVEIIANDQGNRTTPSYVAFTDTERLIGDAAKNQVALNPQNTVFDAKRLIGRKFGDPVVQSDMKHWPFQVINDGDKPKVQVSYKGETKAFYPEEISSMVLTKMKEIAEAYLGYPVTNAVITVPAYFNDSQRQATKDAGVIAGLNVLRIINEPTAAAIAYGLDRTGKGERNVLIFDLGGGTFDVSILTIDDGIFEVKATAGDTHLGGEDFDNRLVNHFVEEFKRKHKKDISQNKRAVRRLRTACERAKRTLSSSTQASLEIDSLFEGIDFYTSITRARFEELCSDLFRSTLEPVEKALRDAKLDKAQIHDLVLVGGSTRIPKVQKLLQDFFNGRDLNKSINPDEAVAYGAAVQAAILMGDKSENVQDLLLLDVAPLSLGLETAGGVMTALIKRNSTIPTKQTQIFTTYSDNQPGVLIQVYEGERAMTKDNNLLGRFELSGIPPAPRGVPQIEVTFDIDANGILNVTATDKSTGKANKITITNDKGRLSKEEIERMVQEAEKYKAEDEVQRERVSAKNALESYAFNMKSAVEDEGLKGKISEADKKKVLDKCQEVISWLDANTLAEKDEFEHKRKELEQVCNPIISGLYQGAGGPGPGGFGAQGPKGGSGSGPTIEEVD
Procathepsin L, sequence (P07711 whole entry): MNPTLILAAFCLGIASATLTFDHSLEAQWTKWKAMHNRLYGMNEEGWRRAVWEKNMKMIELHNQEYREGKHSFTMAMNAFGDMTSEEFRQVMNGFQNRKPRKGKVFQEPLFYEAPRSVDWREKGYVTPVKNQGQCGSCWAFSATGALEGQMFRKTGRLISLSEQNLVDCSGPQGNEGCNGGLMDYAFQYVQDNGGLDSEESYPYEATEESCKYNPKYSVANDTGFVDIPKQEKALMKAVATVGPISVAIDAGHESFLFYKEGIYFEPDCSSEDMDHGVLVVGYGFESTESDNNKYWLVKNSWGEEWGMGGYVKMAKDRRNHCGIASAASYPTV
Neuropeptide Y receptor type 2, sequence (P49146 whole entry): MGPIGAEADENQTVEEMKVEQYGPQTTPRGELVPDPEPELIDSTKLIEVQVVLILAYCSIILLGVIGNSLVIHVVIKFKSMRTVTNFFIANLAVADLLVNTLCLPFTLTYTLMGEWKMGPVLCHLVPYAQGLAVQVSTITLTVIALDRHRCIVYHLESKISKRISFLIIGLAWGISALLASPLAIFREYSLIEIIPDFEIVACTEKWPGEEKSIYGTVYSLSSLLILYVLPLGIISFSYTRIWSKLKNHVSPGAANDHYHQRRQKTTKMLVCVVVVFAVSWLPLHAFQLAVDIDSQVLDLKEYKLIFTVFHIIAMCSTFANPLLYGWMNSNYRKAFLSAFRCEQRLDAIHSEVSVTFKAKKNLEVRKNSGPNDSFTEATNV
Mothers against decapentaplegic homolog 3, sequence (P84022 whole entry): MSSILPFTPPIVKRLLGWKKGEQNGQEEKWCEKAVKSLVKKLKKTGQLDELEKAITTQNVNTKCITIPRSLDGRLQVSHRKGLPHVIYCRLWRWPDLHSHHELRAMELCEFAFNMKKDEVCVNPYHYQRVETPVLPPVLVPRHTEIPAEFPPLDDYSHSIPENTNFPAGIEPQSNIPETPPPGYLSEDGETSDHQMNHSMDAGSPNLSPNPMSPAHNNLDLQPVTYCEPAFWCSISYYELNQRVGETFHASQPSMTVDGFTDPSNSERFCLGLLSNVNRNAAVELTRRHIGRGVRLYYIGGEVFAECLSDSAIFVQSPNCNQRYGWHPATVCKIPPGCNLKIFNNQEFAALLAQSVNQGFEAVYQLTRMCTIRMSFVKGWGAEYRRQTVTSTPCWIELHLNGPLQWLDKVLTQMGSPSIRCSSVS
Paired box protein Pax-8, sequence (Q06710 whole entry): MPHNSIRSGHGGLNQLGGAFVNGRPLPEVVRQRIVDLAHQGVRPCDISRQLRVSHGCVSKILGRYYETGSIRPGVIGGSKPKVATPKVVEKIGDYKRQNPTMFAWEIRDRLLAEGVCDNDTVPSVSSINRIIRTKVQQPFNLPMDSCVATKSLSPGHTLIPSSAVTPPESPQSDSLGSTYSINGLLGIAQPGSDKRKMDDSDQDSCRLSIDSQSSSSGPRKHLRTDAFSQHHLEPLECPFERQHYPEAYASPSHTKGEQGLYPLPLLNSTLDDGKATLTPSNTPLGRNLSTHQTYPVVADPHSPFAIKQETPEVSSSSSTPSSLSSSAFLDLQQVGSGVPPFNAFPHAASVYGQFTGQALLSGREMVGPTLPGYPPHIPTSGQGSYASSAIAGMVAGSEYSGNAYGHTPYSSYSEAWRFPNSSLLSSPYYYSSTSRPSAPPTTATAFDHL
Sphingosine 1-phosphate receptor 1, sequence (P21453 whole entry): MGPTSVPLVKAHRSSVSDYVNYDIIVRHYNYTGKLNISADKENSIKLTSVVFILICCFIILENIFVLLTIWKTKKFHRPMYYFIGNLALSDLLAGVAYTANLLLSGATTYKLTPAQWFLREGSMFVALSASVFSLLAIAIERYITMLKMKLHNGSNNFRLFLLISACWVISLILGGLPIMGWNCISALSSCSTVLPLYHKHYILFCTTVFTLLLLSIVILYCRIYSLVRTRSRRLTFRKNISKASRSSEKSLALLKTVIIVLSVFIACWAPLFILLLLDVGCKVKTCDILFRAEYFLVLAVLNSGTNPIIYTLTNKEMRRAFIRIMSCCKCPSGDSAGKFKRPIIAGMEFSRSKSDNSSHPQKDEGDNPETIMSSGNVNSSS
Neuropeptide Y receptor type 1, sequence (P25929 whole entry): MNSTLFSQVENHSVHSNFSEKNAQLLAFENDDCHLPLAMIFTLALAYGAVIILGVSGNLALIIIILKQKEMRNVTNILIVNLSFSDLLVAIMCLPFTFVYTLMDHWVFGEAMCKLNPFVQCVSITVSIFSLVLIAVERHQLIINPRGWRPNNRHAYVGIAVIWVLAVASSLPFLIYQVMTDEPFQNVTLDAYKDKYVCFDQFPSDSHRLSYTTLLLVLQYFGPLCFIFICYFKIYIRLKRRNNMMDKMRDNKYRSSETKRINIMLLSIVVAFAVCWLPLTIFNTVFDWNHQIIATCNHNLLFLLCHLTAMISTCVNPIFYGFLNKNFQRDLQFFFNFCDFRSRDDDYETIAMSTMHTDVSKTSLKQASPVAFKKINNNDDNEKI
Sphingosine 1-phosphate receptor 4, sequence (O95977 whole entry): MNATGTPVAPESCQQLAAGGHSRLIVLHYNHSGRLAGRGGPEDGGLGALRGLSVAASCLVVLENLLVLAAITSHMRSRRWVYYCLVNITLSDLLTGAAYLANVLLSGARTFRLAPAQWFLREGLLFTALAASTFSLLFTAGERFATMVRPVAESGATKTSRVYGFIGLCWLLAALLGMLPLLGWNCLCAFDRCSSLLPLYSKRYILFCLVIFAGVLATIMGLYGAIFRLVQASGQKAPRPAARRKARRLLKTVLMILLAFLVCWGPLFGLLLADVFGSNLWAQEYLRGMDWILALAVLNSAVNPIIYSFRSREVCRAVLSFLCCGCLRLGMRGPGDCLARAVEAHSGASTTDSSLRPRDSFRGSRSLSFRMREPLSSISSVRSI

For `CC(=O)Nc1cc2c(cc1C(C)=O)OCCO2`, the IC50 [1] was > 100 µM (not active) and the IC50 [2] was > 100 µM (not active).
In the case of `COc1cc(OC)c(C(c2cc3c(cc2O)OCO3)N2CCOCC2)c(OC)c1` (stereo unspecified), the IC50 [3] is reported as > 40 µM (not active).
In the case of `Nc1c(-c2ccccc2)c(CSc2nc3ccccc3[nH]2)nn1-c1ccc(Cl)cc1`, the EC50 [4] is reported as 7.41 µM (active), the EC50 [5] is reported as 6.65 µM (active) and the EC50 [6] is reported as 0.595 µM (active). For the same molecule, the EC50 [7] was 12.2 µM (active) and the EC50 (HEK293) was > 35.4 µM (not active).
With `O=C(Nc1ccc(N2CCN(C(=O)c3ccccc3)CC2)cc1)c1ccc([N+](=O)[O-])o1` the EC50 [8] was 8.79 µM (active), the IC50 [9] was 1.64 µM (active) and the IC50 [10] was 12.7 µM (not active). For the same molecule, the AC50 (Paired box protein Pax-8) was 3.92 µM (active), the AC50 [11] was 17.9 µM (active) and the CC50 (HeLa) was 7.65 µM (active).
In the case of `O=C(Nc1cccc([N+](=O)[O-])c1)Nn1cnnc1`, the IC50 (Procathepsin L) is reported as > 59.6 µM (not active) and the IC50 (Aspartyl aminopeptidase) is reported as 0.93 µM (active).
